Results: PubChem BioAssay (NCI)
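A five-concentration, 48-hour dose response in 96-well plates underlies each endpoint, interpolated linearly between surrounding concentrations. TGI denotes the concentration required for complete inhibition of growth.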

Assays:
Experiment in all cases: NCI-60 cell line screen, 48 h
[1] = tested on: 786-0 renal
[2] = tested on: A498 renal
[3] = tested on: A549 NSCLC
[4] = tested on: ACHN renal
[5] = tested on: BT-549 breast
[6] = tested on: CCRF-CEM leukemia
[7] = tested on: COLO 205 colon
[8] = tested on: DU-145 prostate
[9] = tested on: EKVX NSCLC
[10] = tested on: HCC-2998 colon
[11] = tested on: HCT-116 colon
[12] = tested on: HCT-15 colon
[13] = tested on: HL-60(TB) leukemia
[14] = tested on: HOP-62 NSCLC
[15] = tested on: HOP-92 NSCLC
[16] = tested on: HS 578T breast
[17] = tested on: HT29 colon
[18] = tested on: IGROV1 ovarian
[19] = tested on: K-562 leukemia
[20] = tested on: KM12 colon
[21] = tested on: M14 melanoma
[22] = tested on: MCF7 breast
[23] = tested on: MDA-MB-231 breast
[24] = tested on: MDA-MB-435
[25] = tested on: MDA-N
[26] = tested on: MOLT-4 leukemia
[27] = tested on: NCI-H226 lung
[28] = tested on: NCI-H23 lung
[29] = tested on: NCI-H460 lung
[30] = tested on: NCI/ADR-RES ovarian
[31] = tested on: OVCAR-3 ovarian
[32] = tested on: OVCAR-4 ovarian
[33] = tested on: OVCAR-5 ovarian
[34] = tested on: OVCAR-8 ovarian
[35] = tested on: RPMI-8226 leukemia
[36] = tested on: RXF 393 renal
[37] = tested on: SF-268 CNS
[38] = tested on: SF-295 CNS
[39] = tested on: SF-539 CNS
[40] = tested on: SK-MEL-2 melanoma
[41] = tested on: SK-MEL-28 melanoma
[42] = tested on: SK-MEL-5 melanoma
[43] = tested on: SK-OV-3 ovarian
[44] = tested on: SN12C renal
[45] = tested on: SNB-19 CNS
[46] = tested on: SNB-75 CNS
[47] = tested on: SW-620 colon
[48] = tested on: T-47D breast
[49] = tested on: TK-10 renal
[50] = tested on: U251 CNS
[51] = tested on: UACC-257 melanoma
[52] = tested on: UACC-62 melanoma
[53] = tested on: UO-31 renal
[54] = tested on: CAKI-1 renal
[55] = tested on: LOX IMVI melanoma
[56] = tested on: MALME-3M melanoma
[57] = tested on: NCI-H522 lung
[58] = tested on: PC-3 prostate

CC(=O)Nc1ccc(C(=O)NN2C(=O)CSC2c2ccc(O)cc2)cc1 (stereo unspecified)
TGI [1]: > 100 µM
TGI [2]: > 100 µM
TGI [3]: > 100 µM
TGI [4]: > 100 µM
TGI [5]: > 100 µM
TGI [6]: > 100 µM
TGI [7]: > 100 µM
TGI [8]: > 100 µM
TGI [9]: > 100 µM
TGI [10]: > 100 µM
TGI [11]: > 100 µM
TGI [12]: > 100 µM
TGI [13]: > 100 µM
TGI [14]: > 100 µM
TGI [15]: > 100 µM
TGI [16]: > 100 µM
TGI [17]: > 100 µM
TGI [18]: > 100 µM
TGI [19]: > 100 µM
TGI [20]: > 100 µM
TGI [21]: > 100 µM
TGI [22]: > 100 µM
TGI [23]: > 100 µM
TGI [24]: > 100 µM
TGI [25]: > 100 µM
TGI [26]: > 100 µM
TGI [27]: > 100 µM
TGI [28]: > 100 µM
TGI [29]: > 100 µM
TGI [30]: > 100 µM
TGI [31]: > 100 µM
TGI [32]: > 100 µM
TGI [33]: > 100 µM
TGI [34]: > 100 µM
TGI [35]: > 100 µM
TGI [36]: > 100 µM
TGI [37]: > 100 µM
TGI [38]: > 100 µM
TGI [39]: > 100 µM
TGI [40]: > 100 µM
TGI [41]: > 100 µM
TGI [42]: > 100 µM
TGI [43]: > 100 µM
TGI [44]: > 100 µM
TGI [45]: > 100 µM
TGI [46]: > 100 µM
TGI [47]: > 100 µM
TGI [48]: > 100 µM
TGI [49]: > 100 µM
TGI [50]: > 100 µM
TGI [51]: > 100 µM
TGI [52]: > 100 µM
TGI [53]: > 100 µM

CCOC(=O)C1(C/C=C/CCl)CCCC1=O (stereo unspecified)
TGI [1]: 49.4 µM
TGI [2]: > 100 µM
TGI [3]: 49.4 µM
TGI [4]: 36.6 µM
TGI [5]: 40.8 µM
TGI [54]: 79.5 µM
TGI [6]: > 100 µM
TGI [7]: 72.9 µM
TGI [8]: > 100 µM
TGI [9]: 37.9 µM
TGI [11]: 34.9 µM
TGI [12]: 40 µM
TGI [13]: > 100 µM
TGI [14]: 45.1 µM
TGI [16]: > 100 µM
TGI [17]: 68.4 µM
TGI [18]: 42 µM
TGI [20]: 41.2 µM
TGI [55]: 30.4 µM
TGI [21]: 38.5 µM
TGI [56]: 45.4 µM
TGI [22]: 48.4 µM
TGI [23]: 42.5 µM
TGI [24]: 44 µM
TGI [25]: 35.1 µM
TGI [26]: > 100 µM
TGI [27]: 36.2 µM
TGI [28]: 38.3 µM
TGI [29]: > 100 µM
TGI [57]: 47 µM
TGI [30]: 37.2 µM
TGI [32]: 93.7 µM
TGI [33]: 39.1 µM
TGI [34]: 38.2 µM
TGI [58]: > 100 µM
TGI [36]: 32.7 µM
TGI [37]: 68.1 µM
TGI [38]: > 100 µM
TGI [39]: 40.6 µM
TGI [40]: 59 µM
TGI [41]: 50.6 µM
TGI [42]: 33.9 µM
TGI [43]: > 100 µM
TGI [44]: 59.1 µM
TGI [45]: 61.2 µM
TGI [46]: 61.8 µM
TGI [47]: 42.1 µM
TGI [48]: 51.3 µM
TGI [49]: 68.4 µM
TGI [50]: 86.7 µM
TGI [51]: > 100 µM
TGI [52]: 30.2 µM
TGI [53]: 39.7 µM
